Patent publication US20230181580A1, “TREATMENT OF PROLIFERATIVE DISEASES OF THE CNS” (AUCENTRA THERAPEUTICS PTY LTD, priority 2020, published 2023)

Assays:
CDK1/B = CDK1/B (Homo sapiens, UniProt P06493); assay: CDK kinase inhibition assay (radiometric / ADP Glo); type: biochemical
Protocol: (§1) Eurofins Pharma Discovery or Reaction Biology Corporation Kinase Profiler services were used to measure inhibition of CDKs and other kinases by radiometric assay (RIA). Inhibition of CDK4/Cyclin D1, CDK6/Cyclin D3 and CDK9/T1 were also determined in-house using ADP Glo Kinase assays (Promega Corporation, Madison Wis., United States of America). Briefly, the kinase reaction for CDK4/Cyclin D1 and CDK6/Cyclin D3 was performed with kinase reaction buffer ([…] Tris base pH 7.5, 20 mM MgCl2, 0.4 mM DTT), 0.1 mg/ml BSA and RB-CTF substrate (retinoblastoma protein1 C-terminal fraction). For CDK9/CyclinT1, the kinase reaction was performed with standard assay buffer and Kinase Dilution Buffer and RBER-IRStide substrate. Serial dilutions of 1:3 were prepared for test compounds for 10 concentrations (from 10 μM to 0.5 nM). The kinase reactions were started by addition of ATP, incubated for 40 min at 37° C. and then stopped by adding 10 μL of ADP Glo reagent. After incubation at room temperature (RT) in the dark for 40 min, 20 μL of kinase detection reagent was added per well and incubated for 40 min. Luminescence was measured using an EnVision Multilabel plate reader (PerkinElmer, Buckinghamshire, United Kingdom). Positive and negative controls were performed in the presence and absence of CDK kinases, respectively. Half-maximal inhibition (IC50) values were calculated using a 4-parameter logistic non-linear regression model with Graphpad prism (Version 6.0). Apparent inhibition constants (Ki) values were calculated from Km (ATP) and IC50 values for the respective kinases.

CDK2/A = CDK2/A (Homo sapiens, UniProt P24941); assay: as above; type: biochemical
Protocol: as §1

CDK4/D1 = CDK4/D1 (Homo sapiens, UniProt P11802); assay: as above; type: biochemical
CDK4/D1, sequence (P11802 whole entry): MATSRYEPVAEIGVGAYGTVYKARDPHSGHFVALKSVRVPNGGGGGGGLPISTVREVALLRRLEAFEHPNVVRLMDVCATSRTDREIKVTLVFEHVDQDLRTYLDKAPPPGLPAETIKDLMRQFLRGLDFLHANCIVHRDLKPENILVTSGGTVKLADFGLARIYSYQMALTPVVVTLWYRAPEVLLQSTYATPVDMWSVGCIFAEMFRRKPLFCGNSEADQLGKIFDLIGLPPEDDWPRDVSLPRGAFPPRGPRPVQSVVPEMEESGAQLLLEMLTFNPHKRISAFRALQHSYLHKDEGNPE
CDK4/D1, sequence (P24385 whole entry partner): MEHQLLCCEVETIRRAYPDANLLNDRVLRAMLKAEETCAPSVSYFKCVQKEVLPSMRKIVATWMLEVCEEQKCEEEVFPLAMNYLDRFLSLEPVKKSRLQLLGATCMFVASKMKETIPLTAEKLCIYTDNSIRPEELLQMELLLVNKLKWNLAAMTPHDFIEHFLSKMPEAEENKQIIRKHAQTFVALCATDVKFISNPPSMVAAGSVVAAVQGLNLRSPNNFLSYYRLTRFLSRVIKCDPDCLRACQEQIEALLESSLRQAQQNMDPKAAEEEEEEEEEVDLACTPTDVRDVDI
Protocol: as §1

CDK6/D3 = CDK6/D3 (Homo sapiens, UniProt Q00534); assay: as above; type: biochemical
CDK6/D3, sequence (Q00534 whole entry): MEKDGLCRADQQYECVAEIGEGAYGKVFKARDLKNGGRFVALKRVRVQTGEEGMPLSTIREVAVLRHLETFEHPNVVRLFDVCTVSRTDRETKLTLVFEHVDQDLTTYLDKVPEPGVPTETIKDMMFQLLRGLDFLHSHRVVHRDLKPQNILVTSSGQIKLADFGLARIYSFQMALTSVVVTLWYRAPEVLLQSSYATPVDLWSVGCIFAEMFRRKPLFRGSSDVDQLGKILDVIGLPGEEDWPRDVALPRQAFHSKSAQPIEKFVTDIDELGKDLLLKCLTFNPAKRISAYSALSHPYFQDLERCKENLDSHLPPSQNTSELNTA
CDK6/D3, sequence (P30281 whole entry partner): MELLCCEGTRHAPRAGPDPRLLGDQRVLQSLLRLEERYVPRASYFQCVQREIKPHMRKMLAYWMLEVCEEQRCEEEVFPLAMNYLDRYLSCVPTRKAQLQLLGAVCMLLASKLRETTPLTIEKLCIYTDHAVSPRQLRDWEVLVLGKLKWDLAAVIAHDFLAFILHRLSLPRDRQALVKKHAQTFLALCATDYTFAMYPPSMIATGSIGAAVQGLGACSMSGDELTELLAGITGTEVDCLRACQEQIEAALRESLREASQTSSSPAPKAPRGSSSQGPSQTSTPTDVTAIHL
Protocol: as §1

CDK9/T1 = CDK9/T1 (Homo sapiens, UniProt P50750); assay: as above; type: biochemical
CDK9/T1, sequence (P50750 whole entry): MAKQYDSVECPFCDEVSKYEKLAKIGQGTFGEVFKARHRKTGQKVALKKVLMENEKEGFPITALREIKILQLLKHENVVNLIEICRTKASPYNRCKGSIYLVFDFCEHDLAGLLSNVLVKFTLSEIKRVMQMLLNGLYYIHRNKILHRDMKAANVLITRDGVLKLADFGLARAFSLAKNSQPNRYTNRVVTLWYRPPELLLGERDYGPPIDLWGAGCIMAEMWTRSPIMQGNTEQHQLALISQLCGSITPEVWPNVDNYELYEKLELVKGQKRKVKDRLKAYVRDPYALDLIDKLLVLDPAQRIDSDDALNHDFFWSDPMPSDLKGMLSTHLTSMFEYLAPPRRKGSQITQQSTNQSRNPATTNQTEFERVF
CDK9/T1, sequence (O60563 whole entry partner): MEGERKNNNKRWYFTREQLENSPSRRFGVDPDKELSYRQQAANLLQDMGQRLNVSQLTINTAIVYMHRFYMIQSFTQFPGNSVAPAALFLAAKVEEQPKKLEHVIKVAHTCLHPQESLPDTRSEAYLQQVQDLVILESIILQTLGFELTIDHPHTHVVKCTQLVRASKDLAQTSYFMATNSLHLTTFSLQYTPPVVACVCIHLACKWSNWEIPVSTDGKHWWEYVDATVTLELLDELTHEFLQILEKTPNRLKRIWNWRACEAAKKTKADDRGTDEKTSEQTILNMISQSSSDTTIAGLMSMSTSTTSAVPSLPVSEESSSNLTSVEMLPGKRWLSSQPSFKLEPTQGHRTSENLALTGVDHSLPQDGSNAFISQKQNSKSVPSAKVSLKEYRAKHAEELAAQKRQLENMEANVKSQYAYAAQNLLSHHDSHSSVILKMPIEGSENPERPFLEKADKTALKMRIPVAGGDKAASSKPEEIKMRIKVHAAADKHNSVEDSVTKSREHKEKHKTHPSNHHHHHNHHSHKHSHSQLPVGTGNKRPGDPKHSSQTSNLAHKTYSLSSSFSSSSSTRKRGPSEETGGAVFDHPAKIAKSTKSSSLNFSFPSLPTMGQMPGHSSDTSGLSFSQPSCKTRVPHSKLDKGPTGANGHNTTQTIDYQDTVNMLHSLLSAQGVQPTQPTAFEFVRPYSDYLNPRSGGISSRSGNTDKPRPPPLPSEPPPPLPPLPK
Protocol: as §1

MV4-11 = assay: Resazurin proliferation assay, leukaemia cell line; type: cell-based; details: Homo sapiens, 72 h, read-out: Antiproliferative activity GI50 MV4-11
Text: (§2) Representative compounds from Example 1, were subjected to standard MTT (3-(4,5-dimethylthiazol-2-yl)-2,5-diphenyltetrazolium bromide) and resazurin assays on solid tumour cell lines (including GBM cell lines) and leukemia cell lines, respectively, as previously reported (Wang S et al., J Med Chem 47:1662-1675, 2004; and Diab S. et al. CheMedChem 9:962-972, 2014).

MB453 = assay: MTT proliferation assay, breast; type: cell-based; details: 72 h, read-out: Antiproliferative activity GI50 MB453
Text: as §2

Colo205 = assay: MTT proliferation assay, colorectal; type: cell-based; details: Homo sapiens, COLO 205, 72 h, read-out: Antiproliferative activity GI50 Colo205
Text: as §2

T98G = assay: MTT proliferation assay, glioblastoma; type: cell-based; details: Homo sapiens, 72 h, read-out: Antiproliferative activity GI50 T98G
Protocol: (§3) All three GBM cell lines used in this example, namely U87, U251 and T98G, were cultured in Eagle's Minimum Essential Medium (EMEM) with 10% fetal bovine serum in 75 cm^2 flasks at 37° C. and 5% CO2. All cell lines were confirmed to be mycoplasma-free prior to any experiment setup.
as §2

U251 = assay: MTT proliferation assay, glioblastoma; type: cell-based; details: Homo sapiens, U-251, 72 h, read-out: Antiproliferative activity GI50 U251
Protocol: as §3, §2

U87 = assay: MTT proliferation assay, glioblastoma; type: cell-based; details: Homo sapiens, U-87 MG, 72 h, read-out: Antiproliferative activity GI50 U87
Protocol: as §3, §2

H460 = assay: MTT proliferation assay, lung; type: cell-based; details: Homo sapiens, NCI-H460, 72 h, read-out: Antiproliferative activity GI50 H460
Text: as §2

A2780 = assay: MTT proliferation assay, ovarian; type: cell-based; details: Homo sapiens, 72 h, read-out: Antiproliferative activity GI50 A2780
Text: as §2

PANC1 = assay: MTT proliferation assay, pancreas; type: cell-based; details: Homo sapiens, PANC-1, 72 h, read-out: Antiproliferative activity GI50 PANC1
Text: as §2

LNCap = assay: MTT proliferation assay, prostate; type: cell-based; details: Homo sapiens, 72 h, read-out: Antiproliferative activity GI50 LNCap
Text: as §2

M229 = assay: MTT proliferation assay, melanoma; type: cell-based; details: 72 h, read-out: Antiproliferative activity GI50 M229
Text: as §2

U87 GBM cells [1] = assay: Subcutaneous U87 GBM xenograft, single agents; type: in vivo
Text: (§4) Compound 1 and compound 2 were also investigated for in vivo antitumour activity in subcutaneous xenograft models. Briefly, U87 GBM cells were harvested and resuspended in a 1:1 mixture of serum-free media and matrigel, and 5×10^6 cells injected subcutaneously into the rear flank of 5-6-week-old CD1 nu/nu female mice. When the mean tumour volume reached 150-200 mm^3, animals were randomised to treatment groups (n=10 per group) and treated orally with vehicle (0.5% carboxymethyl cellulose in water), compound 1 or compound 2 daily for 21 days with the doses shown in FIGS. 5A and 5B. Mice were observed daily for signs of toxicity and weight loss, and tumour volume measured every other day.

U87 xenografted mice = assay: Subcutaneous U87 xenograft, compound 2 and TMZ study; type: in vivo; details: 25 mg/kg PO daily, single agent and with TMZ
Text: as §4
In another study, U87 xenografted mice (n=8 per group) were treated with: (1) vehicle, (2) compound 2 (25 mg/kg, PO, daily), (3 and 4) TMZ (5 mg/kg or 50 mg/kg, PO, 5 day/week), (5) pre-treatment with compound 2 (25 mg/kg, PO, daily ×10), followed by TMZ (5 mg/kg, PO, 5 day/week ×2), (6) pre-treatment with TMZ (5 mg/kg, PO, 5 day/week ×2) followed by compound 2 (25 mg/kg, PO, daily ×10), and (7) co-treatment with compound 2 and TMZ, respectively. All treatment groups were completed by day 21, which were followed by a 7-day drug holiday before the second cycle of treatment started from day 29 (FIG. 5B).

U87 GBM cells [2] = assay: Orthotopic U87 GBM xenograft; type: in vivo, NSG mice
Protocol: In vivo anti-tumour efficacy of compound 1 and compound 2 was also investigated in GBM orthotopic mouse xenograft models. For example, compound 2 was administered orally once daily for 21 days to NSG mice (n=8) (The Jackson Laboratory, Ben Harbor, Me., United States of America) orthotopically engrafted with the U87 GBM cells per each treatment cohort. TMZ was given orally once daily for 5 days and was used as a positive control. The disease burden was measured by a non-invasive bioluminescent whole-body imaging technique.

CDK7/H = CDK7/H (Homo sapiens, UniProt P50613); assay: CDK kinase inhibition assay (radiometric / ADP Glo); type: biochemical
CDK7/H, sequence (P50613 whole entry): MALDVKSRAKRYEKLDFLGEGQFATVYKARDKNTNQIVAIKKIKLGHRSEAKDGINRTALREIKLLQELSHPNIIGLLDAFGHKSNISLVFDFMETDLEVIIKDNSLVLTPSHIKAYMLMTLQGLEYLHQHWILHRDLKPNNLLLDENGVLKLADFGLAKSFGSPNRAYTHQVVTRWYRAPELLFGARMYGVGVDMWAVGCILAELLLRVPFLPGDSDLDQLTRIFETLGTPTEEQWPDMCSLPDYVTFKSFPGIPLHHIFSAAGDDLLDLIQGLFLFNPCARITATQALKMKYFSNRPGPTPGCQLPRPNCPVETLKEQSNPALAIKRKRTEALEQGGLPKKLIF
CDK7/H, sequence (P51946 whole entry partner): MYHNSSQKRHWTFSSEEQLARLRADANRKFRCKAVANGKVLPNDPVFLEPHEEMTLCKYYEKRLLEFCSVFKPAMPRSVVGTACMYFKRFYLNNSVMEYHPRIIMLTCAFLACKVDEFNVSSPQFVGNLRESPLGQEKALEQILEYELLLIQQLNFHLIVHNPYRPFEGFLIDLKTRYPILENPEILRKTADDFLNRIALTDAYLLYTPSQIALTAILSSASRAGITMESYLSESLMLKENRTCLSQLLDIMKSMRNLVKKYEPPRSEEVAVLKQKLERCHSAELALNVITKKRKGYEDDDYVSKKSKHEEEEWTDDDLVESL
CDK7/H, sequence (P51948 whole entry partner): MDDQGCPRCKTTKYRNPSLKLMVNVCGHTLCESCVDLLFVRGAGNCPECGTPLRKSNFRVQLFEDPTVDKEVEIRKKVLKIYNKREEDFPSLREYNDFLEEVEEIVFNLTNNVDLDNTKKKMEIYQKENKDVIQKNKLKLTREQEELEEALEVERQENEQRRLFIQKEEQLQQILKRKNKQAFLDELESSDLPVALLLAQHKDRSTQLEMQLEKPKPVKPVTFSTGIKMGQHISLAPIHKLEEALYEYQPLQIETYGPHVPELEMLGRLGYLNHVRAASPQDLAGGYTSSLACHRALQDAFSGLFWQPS
Protocol: as §1

CDK1/B, sequence (P06493 whole entry): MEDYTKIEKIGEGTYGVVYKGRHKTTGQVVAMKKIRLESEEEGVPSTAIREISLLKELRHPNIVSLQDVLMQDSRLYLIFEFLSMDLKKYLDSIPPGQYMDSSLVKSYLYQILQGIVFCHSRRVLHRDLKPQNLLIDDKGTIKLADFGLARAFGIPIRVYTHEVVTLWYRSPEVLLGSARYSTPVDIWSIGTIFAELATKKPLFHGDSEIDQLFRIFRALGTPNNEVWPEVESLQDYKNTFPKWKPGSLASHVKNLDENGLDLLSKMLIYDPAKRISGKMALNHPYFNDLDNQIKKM
CDK1/B, sequence (P14635 whole entry partner): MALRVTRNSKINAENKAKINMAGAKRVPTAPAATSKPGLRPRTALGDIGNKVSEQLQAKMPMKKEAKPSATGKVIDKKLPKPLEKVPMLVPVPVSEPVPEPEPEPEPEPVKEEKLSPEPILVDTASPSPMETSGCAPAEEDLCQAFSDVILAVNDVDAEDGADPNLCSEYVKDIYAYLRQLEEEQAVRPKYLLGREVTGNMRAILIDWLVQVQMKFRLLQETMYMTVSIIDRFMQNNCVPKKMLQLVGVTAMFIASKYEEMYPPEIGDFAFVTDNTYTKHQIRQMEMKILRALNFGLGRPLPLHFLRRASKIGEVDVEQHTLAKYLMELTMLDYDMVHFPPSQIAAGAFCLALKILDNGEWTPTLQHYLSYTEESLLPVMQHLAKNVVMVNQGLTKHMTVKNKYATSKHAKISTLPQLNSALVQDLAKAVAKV

Row | SMILES | Ki (CDK1/B) [nM] | Ki (CDK2/A) [nM] | Ki (CDK4/D1) [nM] | Ki (CDK6/D3) [nM] | Ki (CDK9/T1) [nM] | GI50 (MV4-11) [nM] | Ki (CDK7/H) [nM] | GI50 (MB453) [nM] | also measured
1 | CCN1CCN(Cc2ccc(Nc3ncc(F)c(-c4sc(NC5CCCC5)nc4C)n3)nc2)CC1 [Compound 2, N-cyclopentyl-5-(2-((5-((4-ethylpiperazin-1-yl)methyl)pyridin-2-yl)amino)-5-fluoropyrimidin-4-yl)-4-methylthiazol-2-amine] | > 1000 | 620 | 0.2 | 3 | > 1000 | 10 | – | 620 | GI50 (Colo205): 1550 nM; GI50 (T98G): 4180 nM; GI50 (U251): 5090 nM; GI50 (U87): 2170 nM; GI50 (H460): 410 nM; GI50 (A2780): 40 nM; GI50 (PANC1): 1210 nM; GI50 (LNCap): 280 nM; GI50 (M229): 830 nM; T/C (U87 GBM cells [1]; day 21, oral daily for 21 days, vs vehicle, p<0.001): 6%; tumour growth compared to vehicle treatment (U87 GBM cells [1]; oral daily for 21 days): markedly reduced tumour growth; toxicity (U87 GBM cells [1]; oral daily for 21 days, observed daily for signs of toxicity and weight loss): without any overt toxicity; toxicity (U87 xenografted mice): without any overt toxicity; anti-tumour efficacy (U87 xenografted mice; p<0.001 vs vehicle): significant anti-tumour efficacy both as a single agent and in combination with TMZ; inhibition in tumour growth (TGI) (U87 GBM cells [2]; day 21, oral once daily for 21 days, vs vehicle, p<0.001): 81.4%; increase in life span ratio (ILS) (U87 GBM cells [2]; vs vehicle control, ILS=(DaysT−DaysC)/DaysC): 154.8%
2 | CCN1CCN(Cc2ccc(Nc3nccc(-c4sc(NC5CCCC5)nc4C)n3)nc2)CC1 [Compound 6, N-cyclopentyl-5-(2-((5-((4-ethylpiperazin-1-yl)methyl)pyridin-2-yl)amino)pyrimidin-4-yl)-4-methylthiazol-2-amine] | > 1000 | 416 | 6 | 9 | > 1000 | 20 | 630 | 70 | GI50 (Colo205): 4380 nM
3 | CNc1nc(C)c(-c2nc(Nc3ccc(N4CCC(N)CC4)cn3)ncc2F)s1 [Compound 7, 5-(2-((5-(4-aminopiperidin-1-yl)pyridin-2-yl)amino)-5-fluoropyrimidin-4-yl)-N,4-dimethylthiazol-2-amine] | > 1000 | 206 | 3 | 32 | > 1000 | 80 | > 1000 | 360 | –
4 | Cc1nc(NC2CCCC2)sc1-c1ccnc(Nc2ccc(N3CCC(N)CC3)cn2)n1 [Compound 8, 5-(2-((5-(4-aminopiperidin-1-yl)pyridin-2-yl)amino)pyrimidin-4-yl)-N-cyclopentyl-4-methylthiazol-2-amine] | > 1000 | 278 | 1 | 8 | 508 | 30 | 282 | 100 | –
5 | Cc1nc(NC2CCCC2)sc1-c1nc(Nc2ccc(N3CCOCC3)cn2)ncc1F [Compound 9, N-cyclopentyl-5-(5-fluoro-2-((5-morpholinopyridin-2-yl)amino)pyrimidin-4-yl)-4-methylthiazol-2-amine] | > 1000 | 104 | 6 | 20 | > 1000 | 290 | > 1000 | 1450 | –

Further lines, with some results ahead:

Row | Ki (CDK1/B) [nM] | Ki (CDK2/A) [nM] | Ki (CDK4/D1) [nM] | Ki (CDK6/D3) [nM] | Ki (CDK9/T1) [nM] | GI50 (MV4-11) [nM] | Ki (CDK7/H) [nM] | SMILES | GI50 (MB453) [nM] | also measured
6 | > 1000 | > 1000 | 1 | 34 | 220 | 20 | > 1000 | Cc1nc(NC2CCCC2)sc1-c1ccnc(Nc2ccc(N3CCNCC3)cn2)n1 [Compound 3, N-cyclopentyl-4-methyl-5-(2-((5-(piperazin-1-yl)pyridin-2-yl)amino)pyrimidin-4-yl)thiazol-2-amine] | 70 | –
7 | > 1000 | 355 | 2 | 11 | 141 | 10 | – | CCN1CCN(c2ccc(Nc3nccc(-c4sc(NC5CCCC5)nc4C)n3)nc2)CC1 [Compound 4, N-cyclopentyl-5-(2-((5-(4-ethylpiperazin-1-yl)pyridin-2-yl)amino)pyrimidin-4-yl)-4-methylthiazol-2-amine] | 290 | –
8 | > 1000 | > 1000 | 4 | 30 | > 1000 | 170 | > 1000 | CNc1nc(C)c(-c2nc(Nc3ccc(N4CCN(C(C)=O)CC4)cn3)ncc2C#N)s1 [Compound 5, 2-((5-(4-acetylpiperazin-1-yl)pyridin-2-yl)amino)-4-(4-methyl-2-(methylamino)thiazol-5-yl)pyrimidine-5-carbonitrile] | 810 | –
